Series [1] can be described thus: Stability in CD1 mouse liver microsomes assessed as parent compound remaining at 10 uM measured after 30 mins by LC-MS/MS analysis. It is filed as ADME, Microsome. The conditions noted are these: read-out: Stability. (Liver microsomes are a subcellular fraction often used to study metabolism.)
For series [2], the target named is T1, Lysyl oxidase homolog 2 (Homo sapiens) (UniProt Q9Y4K0).
T1 sequence (whole entry): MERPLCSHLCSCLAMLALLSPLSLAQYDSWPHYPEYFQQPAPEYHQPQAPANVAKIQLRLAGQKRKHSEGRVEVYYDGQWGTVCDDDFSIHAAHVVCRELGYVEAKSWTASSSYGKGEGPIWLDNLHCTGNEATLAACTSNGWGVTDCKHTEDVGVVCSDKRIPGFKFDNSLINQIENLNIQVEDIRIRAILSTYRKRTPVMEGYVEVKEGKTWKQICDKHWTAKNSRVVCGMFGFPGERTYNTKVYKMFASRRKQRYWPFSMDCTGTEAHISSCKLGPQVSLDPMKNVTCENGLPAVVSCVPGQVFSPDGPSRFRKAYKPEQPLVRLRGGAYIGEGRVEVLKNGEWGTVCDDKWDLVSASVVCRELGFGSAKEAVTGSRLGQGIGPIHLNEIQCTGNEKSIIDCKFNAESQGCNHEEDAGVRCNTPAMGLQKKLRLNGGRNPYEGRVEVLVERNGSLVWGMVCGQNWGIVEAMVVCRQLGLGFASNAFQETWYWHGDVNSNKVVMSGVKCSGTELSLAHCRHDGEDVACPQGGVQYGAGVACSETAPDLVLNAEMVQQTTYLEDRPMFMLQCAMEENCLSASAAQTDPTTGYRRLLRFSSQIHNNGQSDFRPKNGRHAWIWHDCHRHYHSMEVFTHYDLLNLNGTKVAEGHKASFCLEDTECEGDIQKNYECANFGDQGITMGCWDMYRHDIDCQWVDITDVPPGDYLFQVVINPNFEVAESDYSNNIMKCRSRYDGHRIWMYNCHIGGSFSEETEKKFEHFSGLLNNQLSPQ
Kind of series: Reversible inhibition of human C-terminal His10-tagged LOXL2 (Met1 to Gln774 residues) expressed in mouse NS0 cells assessed as enzyme residual activity at 10 times IC50 using cadaverine hydrochloride as substrate preincubated for 1 hr followed by 100-fold enzyme-compound mixture dilution in …. The series is classed as cell-based.

The nature of series [3]: Stability in Sprague-Dawley rat liver microsomes assessed as parent compound remaining at 10 uM measured after 30 mins by LC-MS/MS analysis. The series is classed as ADME, Microsome. The conditions noted are these: read-out: Stability.
Another series relates to Mus musculus. The experiment in a line: Antitumor activity against MMTV-PyMT mouse breast cancer model assessed as reduction in tumor growth at 70 mg/kg, po administered once daily via gavage for 34 days measured twice a week during compound dosing. The series is classed as functional, organism-based.
The nature of series [4]: Toxicity in MMTV-PyMT mouse breast cancer model assessed as change in body weight at 70 mg/kg, po administered once daily via gavage for 34 days. It is filed as organism-based. The conditions noted are these: in vivo, 816 h.
Series [5] is described as follows: Toxicity in MMTV-PyMT mouse breast cancer model assessed as death at 70 mg/kg, po administered once daily via gavage for 34 days. The conditions noted are these: in vivo, 816 h. It is filed as organism-based.
The nature of series [6]: Inhibition of pig skin-derived LOX using cadaverine hydrochloride as substrate preincubated for 1 hr followed by substrate addition by ROS-Glo assay. Set-up: species or system Sus scrofa.

Active and inactive are the calls of the source. The rule behind the calls is not given here.

`CS(=O)(=O)c1cc(-c2ccccc2)cc(S(=O)(=O)c2ccc(CN)s2)c1`: the remaining at 0.5 h, 10 µM in series [1] amounted to 64%. Further, in series [2], the Activity came to 80%.

Consider `CCc1cc(-c2cnn(C)c2)cc(S(=O)(=O)c2cnc(CN)s2)c1`, for which the remaining at 0.5 h, 10 µM in series [1] is 76%; in series [3], 82%. Besides, in the series with Mus musculus, the outcome was Active. Also, the results for the Activity entry in series [4], in series [5] and in series [2] were “Non-Toxic”, “Non-Toxic” and 30%, respectively.

By IC50 is commonly meant the concentration that gives 50% inhibition. The low end stands for inhibition by little substance, the high end for a need for much substance. Consider `Cn1cc(-c2cc(S(C)(=O)=O)cc(S(=O)(=O)c3csc(CN)n3)c2)cn1`, for which the IC50 in series [6] is greater than 100 µM.

Turning to `Cn1cc(-c2cc(S(C)(=O)=O)cc(S(=O)(=O)c3cnc(CN)s3)c2)cn1`, the half-maximal inhibitory concentration (IC50) in series [6] lay in the range of 2.65 to 3.42 µM.

As for `CS(=O)(=O)c1cc(-c2ccccc2)cc(S(=O)(=O)c2csc(CN)n2)c1`, in series [6], the half-inhibitory concentration (IC50) is greater than 100 µM.

Consider `CS(=O)(=O)c1cc(Sc2cnc(CN)s2)cc(-c2ccccc2)c1`, for which, in series [6], the IC50 lay within 1.13 to 1.31 µM.

The compound `CS(=O)(=O)c1cc(-c2ccccc2)cc(-c2cnc(CN)s2)c1` had an IC50 in series [6] of 46.5 to 52 µM.

Source of the values: ChEMBL document CHEMBL4402523, “2-Aminomethylene-5-sulfonylthiazole Inhibitors of Lysyl Oxidase (LOX) and LOXL2 Show Significant Efficacy in Delaying Tumor Growth” (J Med Chem, 2020).
